Reference: patent publication US11292773B2, “Small molecule inhibitors of BCL-2-associated death promoter (BAD) phosphorylation” (NATIONAL UNIVERSITY OF SINGAPORE, priority 2017, dated 2022)
pIC50, pKd: −log10 of the molar value. “Also recorded” adds a separate entry of the source.

What was measured:
MCF7 cells = experiment: AlamarBlue cell viability assay; format: cell-based; details: Homo sapiens, read-out: IC50 (antiproliferative)
Excerpt: We initially investigated the effect of newly synthesized small molecule compounds against MCF7 cells (ER+ MC cells) using an AlamarBlue® cell viability assay. Among the series of novel small molecule compounds, NPB was identified as an efficacious small molecule compound reducing viability of MCF7 cells compared to vehicle (DMSO) treated cells. […] We next determined the inhibitory concentration 50% (IC50) of NPB in wide-range of carcinoma cell lines including those derived from ER− mammary (BT549, MDA-MB-231), ER+ mammary (MCF7, T47D, and BT474), endometrial (Ishikawa, ECC-1, RL95-2, and AN3), ovarian (SK-OV-3, OVCAR-2, Caov-3, HEY C2, and OVCA433), hepatocellular (Hep3B, H2P, and H2M), colon (HCT116, DLD-1, and Caco-2), prostate (PC3, LNCaP, and DU145) and pancreatic (AsPC-1, BxPC-3) carcinoma. As normal cell controls, we also included immortalized mammary epithelial cells (MCF10A and MCF12A), and immortalized hepatocytes (LO2) in the panel of cell lines.

[1] = system: normal hepatocytes (LO2) and immortalized mammary epithelial cells (MCF10A and MCF12A); experiment: Activity on normal immortalized cells; format: cell-based, human
Excerpt: NPB was subsequently evaluated against panel of normal immortalized mammary epithelial cells (MCF10A and MCF12A), normal hepatocytes (LO2), mammary carcinoma (BT549, MDA-MB-231, MCF7, T47D, BT474), endometrial cancer (Ishikawa, Ecc1, RL95-2, AN3), ovarian cancer (SK-OV-3, OVCAR-2, Caov-3, HEY C2, Ovca433), liver cancer (Hep3B, H2P, H2M), colon cancer (HCT116, DLD-1, Caco-2), prostate cancer (PC3, LNCaP, DU145) and pancreatic cancer (AsPC-1, BxPC-3) cells. […] Using a Laplacian-modified Naïve Bayes classifier, NPB is subjected to in silico analysis which anticipates the human target of NPB as BAD protein.
Effect of NPB (5 μM) on carcinoma cell viability including, mammary, endometrial, ovarian, liver, colon, prostate, and pancreatic carcinoma cell lines. (A) Cell viability (B) caspase 3/7 activities and (C) cytotoxicity were evaluated using ApoTox-GIo™ Triplex Assay Kit as described in methodology. Statistical significance was assessed by an unpaired two-tailed Student's t-test using GraphPad Prism5. The column represents mean of triplicate determinations; bars, ±SD. **P<0.001, *P<0.05. Note: RFU, relative fluorescence unit; RLU, relative luminescence unit, #; non-transformed, immortalized epithelial cells; MB-231, MDA-MB-231. […]

[2] = molecular target: T1, Human recombinant BAD protein (Homo sapiens, UniProt Q92934); experiment: Surface plasmon resonance analysis (BIAcore); format: binding; details: SPR
T1 construct: purchased MyBiosource, USA MBS143012
T1 sequence (Q92934 1-168): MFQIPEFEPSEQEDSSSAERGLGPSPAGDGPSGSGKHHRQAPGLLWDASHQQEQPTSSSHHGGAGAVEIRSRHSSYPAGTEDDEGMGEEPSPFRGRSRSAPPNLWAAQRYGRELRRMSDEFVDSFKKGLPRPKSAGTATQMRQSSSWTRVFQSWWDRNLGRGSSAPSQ
Procedure: To provide molecular interaction of the most promising candidate, NPB binding affinity to BAD, we performed surface plasmon resonance (SPR) measurements with immobilized BAD subunit using NPB as the analyte. We know that BAD could bind to BAD subunit in vitro. […] The recombinant BAD was immobilized on CM5 sensor chip. To determine the association and dissociation curves, various concentrations of NPB were injected individually onto the surface of a sensor chip coated with BAD. The overlaid sensorgrams shown in FIG. 14 were analyzed collectively.
Molecular interactions were analyzed based on surface plasmon resonance using a BIAcore-2000 system (BIAcore AB, Uppsala, Sweden). Human recombinant BAD protein (Catalog No. MBS143012, MyBiosource, USA) was immobilized on a sensor chip as described by the manufacturer protocol. To examine the interaction of BAD with NPB, various concentrations of NPB (20 to 100 μM) in the running buffer (HBS-EP, pH 7.4, BIAcore AB) were injected onto the surface of the BAD-immobilized sensor chip with a flow rate of 15 μl/min as per the manufacturer's directions. NPB was allowed to interact with BAD subunit for 2 min for association and dissociation, respectively, after which the sensor chip was regenerated by injecting 1 M NaCl for 2 min before the next injection. Using BIA evaluation software 4.1 (BIAcore AB), the kinetic parameters were such as association and dissociation rate constants (ka and kd), dissociation equilibrium constants (Kd) using a 1:1 binding model with mass transfer. Sensograms obtained were overlaid using BIA evaluation software.

## O=C(NC1CCCC1)c1cccc(C(c2ccccc2O)N2CCN(c3cccc(Cl)c3Cl)CC2)c1 (centres unmarked) [NPB, N-cyclopentyl-3-((4-(2,3-dichlorophenyl)piperazin-1-yl)(2-hydroxyphenyl)methyl) benzamide]
MCF7 cells
  pIC50: 5.19
[1]
  activity / cytotoxic effect on normal cells: no substantial activity; also recorded: did not have cytotoxic effect
[2]; 1:1 binding model with mass transfer, read-out: dissociation equilibrium constants (Kd)
  pKd: 4.43
[2]; immobilized BAD, NPB 20 to 100 μM, read-out: association rate constant
  kon: 1400 M⁻¹ s⁻¹
[2]; immobilized BAD, NPB 20 to 100 μM, read-out: dissociation rate constant
  koff: 0.054 s⁻¹
